Data reported in patent publication US12570642B2, “GLP-IR modulating compounds” (Gilead Sciences, Inc., priority 2021, dated 2026).

Target: GLP-1R (Homo sapiens, UniProt P43220)
Assay: GLP-1R Activation - cAMP Assay
Assay type: cell-based
Conditions: cAMP increase in CHO cells stably expressing GLP-1R; each compound run on one of the two cAMP assays (Assay 1 or Assay 2, not specified)
Method in brief: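 cAMP rise read by HTRF after 30 min agonist exposure (10-point titration, 37 °C) in HBSS/20 mM Hepes/0.1% BSA, following 1 h pre-incubation. Cells: stable GLP-1R CHO line, 1,000/well, seeded overnight. Sigmoidal fit of response vs log concentration gives EC50.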

Sequence of GLP-1R (P43220 24-463): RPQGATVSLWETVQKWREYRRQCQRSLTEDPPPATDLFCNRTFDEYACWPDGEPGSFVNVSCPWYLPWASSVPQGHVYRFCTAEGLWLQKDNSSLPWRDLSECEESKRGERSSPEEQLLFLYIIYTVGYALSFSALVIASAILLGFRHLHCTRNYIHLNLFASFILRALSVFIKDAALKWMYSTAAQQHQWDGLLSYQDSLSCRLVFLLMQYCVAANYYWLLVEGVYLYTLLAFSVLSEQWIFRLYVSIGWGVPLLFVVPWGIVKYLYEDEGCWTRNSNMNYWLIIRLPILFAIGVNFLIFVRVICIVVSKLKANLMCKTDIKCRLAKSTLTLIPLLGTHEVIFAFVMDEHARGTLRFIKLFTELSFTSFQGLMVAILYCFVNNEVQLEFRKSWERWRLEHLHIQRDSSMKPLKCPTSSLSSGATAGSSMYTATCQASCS

Row | EC50 [nM] | Compound
1 | 0.053 | CC1(C)COC[C@H]1n1c(Cc2cc(F)c(-c3cccc(OCc4cnc(-n5ccnn5)cc4Cl)n3)cc2F)nc2ccc(C(=O)O)cc21 [Example 118, (S)-2-(4-(6-((4-chloro-6-(1H-1,2,3-triazol-1-yl)pyridin-3-yl)methoxy)pyridin-2-yl)-2,5-difluorobenzyl)-1-(4,4-dimethyltetrahydrofuran-3-yl)-1H-benzo[d]imidazole-6-carboxylic Acid]
2 | 0.101 | CC1(C)COC[C@H]1n1c(Cc2c(F)cc(-c3cccc(OCc4ccc(C#N)cc4F)n3)c(F)c2F)nc2ccc(C(=O)O)cc21 [Example 120, (S)-2-(4-(6-((4-cyano-2-fluorobenzyl)oxy)pyridin-2-yl)-2,3,6-trifluorobenzyl)-1-(4,4-dimethyltetrahydrofuran-3-yl)-benzimidazole-6-carboxylic Acid]
3 | 0.083 | CC1(C)COC[C@H]1n1c(Cc2cc(F)c(-c3ccnc(OCc4ccc(Cl)cc4F)n3)cc2F)nc2ccc(C(=O)O)cc21 [Example 121, (S)-2-(4-(2-((4-chloro-2-fluorobenzyl)oxy)pyrimidin-4-yl)-2,5-difluorobenzyl)-1-(4,4-dimethyltetrahydrofuran-3-yl)-1H-benzo[d]imidazole-6-carboxylic Acid]
4 | 0.031 | CC1(C)COCC1n1c(Cc2c(F)cc(-c3cccc(OCc4ccc(C#N)cc4F)n3)c(F)c2F)nc2c(F)cc(C(=O)O)cc21 (stereo not drawn) [Example 122, 2-(4-(6-((4-cyano-2-fluorobenzyl)oxy)pyridin-2-yl)-2,3,6-trifluorobenzyl)-1-(4,4-dimethyltetrahydrofuran-3-yl)-4-fluoro-1H-benzo[d]imidazole-6-carboxylic Acid]
5 | 0.528 | CC1(C)COC[C@@H]1n1c(Cc2c(F)cc(-c3cccc(OCc4ccc(C#N)cc4F)n3)c(F)c2F)nc2c(F)cc(C(=O)O)cc21 [Example 123]
6 | 0.027 | CC1(C)COC[C@H]1n1c(Cc2c(F)cc(-c3cccc(OCc4ccc(C#N)cc4F)n3)c(F)c2F)nc2c(F)cc(C(=O)O)cc21 [Example 124]
7 | 0.112 | COCCn1c(Cc2cc(F)c(-c3ccc(F)c(OCc4ccc(C#N)cc4F)n3)cc2F)nc2ccc(C(=O)O)c(F)c21 [Example 125, 2-(4-(6-((4-cyano-2-fluorobenzyl)oxy)-5-fluoropyridin-2-yl)-2,5-difluorobenzyl)-7-fluoro-1-(2-methoxyethyl)-1H-benzo[d]imidazole-6-carboxylic Acid]
8 | 0.332 | CC1(C)COC[C@H]1n1c(Cc2cc(F)c(-c3cccc(OCc4ccc(Cl)cc4F)n3)cc2F)nc2c(Cl)cc(C(=O)O)cc21 [Example 126, (S)-4-chloro-2-(4-(6-((4-chloro-2-fluorobenzyl)oxy)pyridin-2-yl)-2,5-difluorobenzyl)-1-(4,4-dimethyltetrahydrofuran-3-yl)-1H-benzo[d]imidazole-6-carboxylic Acid]
9 | 0.353 | CC1(C)COC[C@H]1n1c(Cc2cc(F)c(-c3ccc(F)c(OCc4ccc(C#N)cc4F)n3)cc2F)nc2c(Cl)cc(C(=O)O)cc21 [Example 127, (S)-4-chloro-2-(4-(6-((4-cyano-2-fluorobenzyl)oxy)-5-fluoropyridin-2-yl)-2,5-difluorobenzyl)-1-(4,4-dimethyltetrahydrofuran-3-yl)-1H-benzo[d]imidazole-6-carboxylic Acid]
10 | 0.271 | CC1(C)COC[C@H]1n1c(Cc2cc(F)c(-c3ccnc(OCc4ccc(C#N)cc4F)n3)cc2F)nc2c(Cl)cc(C(=O)O)cc21 [Example 129, (S)-4-chloro-2-(4-(2-((4-cyano-2-fluorobenzyl)oxy)pyrimidin-4-yl)-2,5-difluorobenzyl)-1-(4,4-dimethyltetrahydrofuran-3-yl)-1H-benzo[d]imidazole-6-carboxylic Acid]
11 | 0.038 | CC1(C)COC[C@H]1n1c(Cc2cc(F)c(-c3cccc(OCc4ccc(C#N)cc4F)n3)cc2F)nc2c(Cl)cc(C(=O)O)cc21 [Example 130, (S)-4-chloro-2-(4-(6-((4-cyano-2-fluorobenzyl)oxy)pyridin-2-yl)-2,5-difluorobenzyl)-1-(4,4-dimethyltetrahydrofuran-3-yl)-1H-benzo[d]imidazole-6-carboxylic Acid]
12 | 0.145 | CC1(C)COC[C@H]1n1c(Cn2cc(F)c(-c3ccc(F)c(OCc4ccc(Cl)cc4F)n3)cc2=O)nc2c(F)cc(C(=O)O)cc21 [Example 131, (S)-2-((6-((4-chloro-2-fluorobenzyl)oxy)-5,5′-difluoro-2′-oxo-[2,4′-bipyridin]-1′(2′H)-yl)methyl)-1-(4,4-dimethyltetrahydrofuran-3-yl)-4-fluoro-1H-benzo[d]imidazole-6-carboxylic Acid]
13 | 0.043 | CC1(C)COC[C@H]1n1c(Cn2cc(F)c(-c3ccc(F)c(OCc4ccc(C#N)cc4F)n3)cc2=O)nc2c(F)cc(C(=O)O)cc21 [Example 132, (S)-2-((6-((4-cyano-2-fluorobenzyl)oxy)-5,5′-difluoro-2′-oxo-[2,4′-bipyridin]-1′(2′H)-yl)methyl)-1-(4,4-dimethyltetrahydrofuran-3-yl)-4-fluoro-1H-benzo[d]imidazole-6-carboxylic Acid]
14 | 0.021 | Cc1cc(Cc2nc3c(F)cc(C(=O)O)cc3n2[C@@H]2COCC2(C)C)c(Cl)cc1-c1cccc(OCc2ccc(C#N)cc2)n1 [Example 133, (S)-2-(2-chloro-4-(6-((4-cyanobenzyl)oxy)pyridin-2-yl)-5-methylbenzyl)-1-(4,4-dimethyltetrahydrofuran-3-yl)-4-fluoro-1H-benzo[d]imidazole-6-carboxylic Acid]
15 | 0.077 | Cc1cc(Cc2nc3ccc(C(=O)O)cc3n2[C@@H]2COCC2(C)C)c(Cl)cc1-c1cccc(OCc2ccc(C#N)cc2)n1 [Example 134, (S)-2-(2-chloro-4-(6-((4-cyanobenzyl)oxy)pyridin-2-yl)-5-methylbenzyl)-1-(4,4-dimethyltetrahydrofuran-3-yl)-1H-benzo[d]imidazole-6-carboxylic Acid]
16 | 0.361 | Cc1cc(Cc2nc3ccc(C(=O)O)cc3n2[C@@H]2COCC2(C)C)c(Cl)cc1-c1ccc(F)c(OCc2ccc(C#N)cc2)n1 [Example 135, (S)-2-(2-chloro-4-(6-((4-cyanobenzyl)oxy)-5-fluoropyridin-2-yl)-5-methylbenzyl)-1-(4,4-dimethyltetrahydrofuran-3-yl)-1H-benzo[d]imidazole-6-carboxylic Acid]
17 | 0.312 | Cc1cc(Cc2nc3c(F)cc(C(=O)O)cc3n2[C@@H]2COCC2(C)C)c(Cl)cc1-c1ccc(F)c(OCc2ccc(C#N)cc2)n1 [Example 136, (S)-2-(2-chloro-4-(6-((4-cyanobenzyl)oxy)-5-fluoropyridin-2-yl)-5-methylbenzyl)-1-(4,4-dimethyltetrahydrofuran-3-yl)-4-fluoro-1H-benzo[d]imidazole-6-carboxylic Acid]
18 | 0.039 | CC1(C)COC[C@H]1n1c(Cn2cc(F)c(-c3cccc(OCc4ccc(Cl)cc4F)n3)cc2=O)nc2c(F)cc(C(=O)O)cc21 [Example 137, (S)-2-((6-((4-chloro-2-fluorobenzyl)oxy)-5′-fluoro-2′-oxo-[2,4′-bipyridin]-1′(2′H)-yl)methyl)-1-(4,4-dimethyltetrahydrofuran-3-yl)-4-fluoro-1H-benzo[d]imidazole-6-carboxylic Acid]
